Reference: PubChem BioAssay AID1745844 (Carcinogenic Potency Database (CPDB), 2022)
Where “and” joins values, the source holds several entries; their conditions need not be identical. Equal entries are not always repeated. Calls of active or inactive are those of the source. The rule behind the calls is not given here.

Test system: rodent lifetime carcinogenesis bioassay, tumor incidence TD50
Assay: chronic cancer bioassays in animals – CPDB, compiled studies (AID 1745844)
[1] = mouse, strain B6C3F1, females, in feed, site: liver, lesion: hepatocellular carcinoma, dosed 91 weeks, study length 91 weeks
[2] = mouse, strain B6C3F1, females, in feed, site: liver, lesion: several types, types named in the paper, dosed 91 weeks, study length 91 weeks
[3] = mouse, strain B6C3F1, females, in feed, site: liver, lesion: several types, types named in the paper, dosed 100 weeks, study length 100 weeks

## CNc1ccc(N(CCO)CCO)cc1[N+](=O)[O-]
mouse, strain B6C3F1, females, in feed, site: any site (literature study), lesion: several types, types named in the paper, dosed 103 weeks, study length 104 weeks
  TD50: 373 mg/kg/day
mouse, strain B6C3F1, females, in feed, site: liver, lesion: hepatocellular adenoma + hepatocellular carcinoma + neoplastic nodule, dosed 103 weeks, study length 104 weeks
  TD50: 179 mg/kg/day
mouse, strain B6C3F1, females, in feed, site: liver, lesion: hepatocellular adenoma + hepatocellular carcinoma, dosed 103 weeks, study length 104 weeks
  TD50: 179 mg/kg/day
mouse, strain B6C3F1, females, in feed, site: liver, lesion: hepatocellular adenoma, dosed 38 weeks, study length 100 weeks
  TD50: 165 mg/kg/day
mouse, strain B6C3F1, females, in feed, site: liver, lesion: hepatocellular adenoma, dosed 64 weeks, study length 100 weeks
  TD50: 969 mg/kg/day
mouse, strain B6C3F1, females, in feed, site: liver, lesion: hepatocellular adenoma, dosed 103 weeks, study length 104 weeks
  TD50: 697 mg/kg/day
mouse, strain B6C3F1, females, in feed, site: liver, lesion: hepatocellular carcinoma, dosed 38 weeks, study length 100 weeks
  TD50: 114 mg/kg/day
mouse, strain B6C3F1, females, in feed, site: liver, lesion: hepatocellular carcinoma, dosed 64 weeks, study length 100 weeks
  TD50: 94 mg/kg/day
[1]
  TD50: 88.9 mg/kg/day and 148 mg/kg/day
  carcinogen call: positive
mouse, strain B6C3F1, females, in feed, site: liver, lesion: hepatocellular carcinoma, dosed 100 weeks, study length 100 weeks
  TD50: 115 mg/kg/day and 163 mg/kg/day and 87.1 mg/kg/day
mouse, strain B6C3F1, females, in feed, site: liver, lesion: hepatocellular carcinoma, dosed 103 weeks, study length 104 weeks
  TD50: 208 mg/kg/day
mouse, strain B6C3F1, females, in feed, site: liver, lesion: several types, types named in the paper, dosed 38 weeks, study length 100 weeks
  TD50: 41.3 mg/kg/day
mouse, strain B6C3F1, females, in feed, site: liver, lesion: several types, types named in the paper, dosed 64 weeks, study length 100 weeks
  TD50: 81.5 mg/kg/day
[2]
  TD50: 85 mg/kg/day
  carcinogen call: positive
[3]
  TD50: 70.6 mg/kg/day and 51.4 mg/kg/day
  carcinogen call: positive
mouse, strain B6C3F1, males, in feed, site: any site (literature study), lesion: several types, types named in the paper, dosed 103 weeks, study length 104 weeks
  TD50: 561 mg/kg/day
mouse, strain B6C3F1, males, in feed, site: liver + thyroid gland, lesion: hepatocellular carcinoma + follicular-cell adenoma, dosed 103 weeks, study length 104 weeks
  TD50: 369 mg/kg/day
mouse, strain B6C3F1, males, in feed, site: liver, lesion: hepatocellular adenoma + hepatocellular carcinoma + neoplastic nodule, dosed 103 weeks, study length 104 weeks
  TD50: 259 mg/kg/day
mouse, strain B6C3F1, males, in feed, site: liver, lesion: hepatocellular adenoma + hepatocellular carcinoma, dosed 103 weeks, study length 104 weeks
  TD50: 259 mg/kg/day
mouse, strain B6C3F1, males, in feed, site: liver, lesion: hepatocellular adenoma, dosed 103 weeks, study length 104 weeks
  TD50: 286 mg/kg/day
mouse, strain B6C3F1, males, in feed, site: liver, lesion: hepatocellular carcinoma, dosed 103 weeks, study length 104 weeks
  TD50: 389 mg/kg/day
mouse, strain B6C3F1, males, in feed, site: thyroid gland, lesion: follicular-cell adenoma, dosed 103 weeks, study length 104 weeks
  TD50: 2230 mg/kg/day
rat, strain Fischer 344, females, in feed, site: liver, lesion: hepatocellular adenoma + hepatocellular carcinoma + neoplastic nodule, dosed 103 weeks, study length 104 weeks
  TD50: 3310 mg/kg/day
rat, strain Fischer 344, females, in feed, site: lung, lesion: alveolar/bronchiolar adenoma + alveolar/bronchiolar carcinoma, dosed 103 weeks, study length 104 weeks
  TD50: 702 mg/kg/day
rat, strain Fischer 344, females, in feed, site: lung, lesion: alveolar/bronchiolar carcinoma, dosed 103 weeks, study length 104 weeks
  TD50: 1190 mg/kg/day
rat, strain Fischer 344, females, in feed, site: uterus, lesion: endometrial stromal polyp, dosed 103 weeks, study length 104 weeks
  TD50: 429 mg/kg/day
rat, strain Fischer 344, males, in feed, site: liver, lesion: hepatocellular adenoma + hepatocellular carcinoma + neoplastic nodule, dosed 103 weeks, study length 104 weeks
  TD50: 938 mg/kg/day
rat, strain Fischer 344, males, in feed, site: liver, lesion: hepatocellular carcinoma + neoplastic nodule, dosed 103 weeks, study length 104 weeks
  TD50: 938 mg/kg/day
rat, strain Fischer 344, males, in feed, site: liver, lesion: neoplastic nodule, dosed 103 weeks, study length 104 weeks
  TD50: 1660 mg/kg/day

## CC(=O)NNc1ccccc1
mouse, strain Swiss albino, females, in drinking water, site: blood vessels, lesion: angioma, dosed 111 weeks, study length 111 weeks
  TD50: 117 mg/kg/day
mouse, strain Swiss albino, females, in drinking water, site: blood vessels, lesion: angiosarcoma, dosed 111 weeks, study length 111 weeks
  TD50: 117 mg/kg/day
mouse, strain Swiss albino, females, in drinking water, site: blood vessels, lesion: several types, types named in the paper, dosed 111 weeks, study length 111 weeks
  TD50: 49 mg/kg/day
mouse, strain Swiss albino, females, in drinking water, site: liver, lesion: angioma, dosed 111 weeks, study length 111 weeks
  TD50: 105 mg/kg/day
mouse, strain Swiss albino, females, in drinking water, site: liver, lesion: angiosarcoma, dosed 111 weeks, study length 111 weeks
  TD50: 105 mg/kg/day
mouse, strain Swiss albino, females, in drinking water, site: liver, lesion: several types, types named in the paper, dosed 111 weeks, study length 111 weeks
  TD50: 44.8 mg/kg/day
mouse, strain Swiss albino, females, in drinking water, site: lung, lesion: adenoma, dosed 111 weeks, study length 111 weeks
  TD50: 413 mg/kg/day (inactive)
mouse, strain Swiss albino, males, in drinking water, site: blood vessels, lesion: angioma, dosed 106 weeks, study length 106 weeks
  TD50: 113 mg/kg/day
mouse, strain Swiss albino, males, in drinking water, site: blood vessels, lesion: angiosarcoma, dosed 106 weeks, study length 106 weeks
  TD50: 161 mg/kg/day
mouse, strain Swiss albino, males, in drinking water, site: blood vessels, lesion: several types, types named in the paper, dosed 106 weeks, study length 106 weeks
  TD50: 59.8 mg/kg/day
mouse, strain Swiss albino, males, in drinking water, site: liver, lesion: angioma, dosed 106 weeks, study length 106 weeks
  TD50: 128 mg/kg/day
mouse, strain Swiss albino, males, in drinking water, site: liver, lesion: angiosarcoma, dosed 106 weeks, study length 106 weeks
  TD50: 146 mg/kg/day
mouse, strain Swiss albino, males, in drinking water, site: liver, lesion: several types, types named in the paper, dosed 106 weeks, study length 106 weeks
  TD50: 62.1 mg/kg/day
mouse, strain Swiss albino, males, in drinking water, site: lung, lesion: adenocarcinoma, dosed 106 weeks, study length 106 weeks
  carcinogen call: negative (inactive)
mouse, strain Swiss albino, males, in drinking water, site: lung, lesion: adenoma, dosed 106 weeks, study length 106 weeks
  carcinogen call: negative (inactive)
